In US11021481B2, “Substituted isoindolin-1-ones and 2,3-dihydro-1h-pyrrolo[3,4-c]pyridin-1-ones as HPK1 antagonists” (Nimbus Saturn, Inc., priority 2019, dated 2021):

These compounds were tested against HPK1 (Homo sapiens (Human), UniProt Q92918) (assay: HPK1 biochemical enzyme assay (microfluidic mobility shift assay)). Conditions: 1.5 nM HPK1, ATP 1 mM final, 30 min preincubation, 60 min at RT, Caliper EZ Reader; read-out: HPK1 1000UMATP caliper IC50.
Sequence of HPK1 (Q92918 whole entry): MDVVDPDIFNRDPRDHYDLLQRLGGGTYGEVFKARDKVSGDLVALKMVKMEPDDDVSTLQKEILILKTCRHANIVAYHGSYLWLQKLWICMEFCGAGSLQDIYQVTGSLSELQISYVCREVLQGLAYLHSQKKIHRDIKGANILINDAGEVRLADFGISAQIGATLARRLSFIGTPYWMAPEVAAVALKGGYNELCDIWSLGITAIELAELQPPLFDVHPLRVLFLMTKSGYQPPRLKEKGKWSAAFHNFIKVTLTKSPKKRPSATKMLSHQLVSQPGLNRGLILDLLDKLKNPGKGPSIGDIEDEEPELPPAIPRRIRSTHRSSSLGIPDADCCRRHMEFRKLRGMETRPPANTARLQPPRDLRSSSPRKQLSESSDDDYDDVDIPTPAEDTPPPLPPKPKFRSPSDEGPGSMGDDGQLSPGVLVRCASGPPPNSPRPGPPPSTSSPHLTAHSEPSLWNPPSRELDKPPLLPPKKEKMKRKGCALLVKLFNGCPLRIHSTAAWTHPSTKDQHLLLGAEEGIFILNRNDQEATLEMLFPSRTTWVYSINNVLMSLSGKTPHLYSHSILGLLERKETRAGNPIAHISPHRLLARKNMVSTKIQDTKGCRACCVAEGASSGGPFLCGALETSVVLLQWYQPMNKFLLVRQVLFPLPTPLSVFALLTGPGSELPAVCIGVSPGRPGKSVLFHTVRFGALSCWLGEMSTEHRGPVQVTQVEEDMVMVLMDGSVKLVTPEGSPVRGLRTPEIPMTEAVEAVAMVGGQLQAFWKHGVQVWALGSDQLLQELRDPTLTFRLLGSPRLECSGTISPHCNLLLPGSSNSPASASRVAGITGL
Description: HPK1 biochemical enzyme assay: HPK1 enzyme inhibition was measured using a microfluidic mobility shift assay. […] Test compounds were titrated in ten point curves (top final assay concentration 3 μM), and preincubated with enzyme/substrate mix for 30 min prior to initiation of the reaction by addition of ATP (1 mM final concentration) and substrate (1 μM final concentration; Carna Biosciences) diluted in assay buffer supplemented by MgCl2 (final assay concentration of 5 mM). Following 60 min incubation at RT, the reaction was terminated by addition of 60 µl/well termination buffer (Carna Biosciences) and signal determination using aCaliper EZ Reader (Perkin Elmer, UK).
The compound numbers correspond to the compound numbers in Table 1.
An IC50 of under 100 nM was found for `Cc1ccn2c(-c3ccc(Nc4ccc(N5CCC(O)(CN6CCOCC6)CC5)cn4)c4c3CNC4=O)cnc2c1F` [I-439, 4-(8-fluoro-7-methylimidazo [1,2-a]pyridin-3-yl)-7-((5-(4-hydroxy-4-(morpholinomethyl)piperidin-1-yl)pyridin-2-yl)amino)isoin-dolin-1-one] in this work.
An IC50 of 100 to 1000 nM was found for `CN1CCN(c2ccc(Nc3ccc(-c4ccnc5ocnc45)c4c3C(=O)NC4)nc2)CC1` [I-270, 7-((5-(4-methylpiperazin-1-yl)pyridin-2-yl)amino)-4-(oxazolo[5,4-b]pyridin-7-yl)isoindolin-1-one] in this work.
An IC50 of under 100 nM was found for `Cc1cccc2c(-c3ccc(Nc4ccc(C5CCOC5)c(CN(C)C)n4)c4c3CNC4=O)cnn12` (stereo in doubt) [I-710, (R)-7-((6-((dimethylamino)-methyl)-5-(tetrahydrofuran-3-yl)pyridin-2-yl)amino)-4-(7-methylpyra-zolo[1,5-a]pyridin-3-yl)isoindolin-1-one] in this work.
An IC50 of under 100 nM was found for `O=C1NCc2c(-c3cnc4cnccn34)ccc(Nc3ccc(N4CC5(COC5)C4)cn3)c21` [I-312, 7-((5-(2-oxa-6-azaspiro[3,3]heptan-6-yl)pyridin-2-yl)amino)-4-(imidazo[1,2-a]pyrazin-3-yl)isoindolin-1-one] in this work.
An IC50 of under 100 nM was found for `CN1C[C@@H]2CCN(c3cccc(Nc4cnc(-c5ccnc6c5ccn6C)c5c4C(=O)NC5)n3)[C@@H]2C1` [I-630, 4-(1-methyl-1H-pyrrolo[2,3-b]pyridin-4-yl)-7-((6-((3aS, 6aS)-5-methylhexahy-dropyrrolo[3,4-b]pyrrol-1(2H)-yl)pyridin-2-yl)amino)-2,3-dihydro-1H-pyrrolo[3,4-c]pyridin-1-one] in this work.
An IC50 of 100 to 1000 nM was found for `O=C1NCc2c(-c3cnc4n3CCCC4)ccc(Nc3ccc(N4CCC(O)CC4)cn3)c21` [I-296, 7-((5-(4-hydroxy-piperidin-1-yl)pyridin-2-yl)amino)-4-(5,6,7,8-tetrahydro-imidazo[1,2-a]pyridin-3-yl)isoindolin-1-one] in this work.
An IC50 of under 100 nM was found for `CC(C)(O)[C@@H]1CN(c2ccc(Nc3cnc(-c4cnc5c(C(F)F)cccn45)c4c3C(=O)NC4)nc2)CCO1` [I-475, 4-[8-(difluoromethyl)-imidazo[1,2-a]pyridin-3-yl]-7-[[5-[(2S)-2-(1-hydroxy-1-methyl-ethyl)morpholin-4-yl]-2-pyridyl]amino]-2,3-dihydropyrrolo [3,4-c]pyridin-1-one] in this work.
An IC50 of under 100 nM was found for `Cc1csc2c(-c3ccc(Nc4ccc(N5CCC(O)CC5)cn4)c4c3CNC4=O)ccnc12` [I-361, 7-((5-(4-hydroxypip-eridin-1-yl)pyridin-2-yl)amino)-4-(3-methylthieno [3,2-b]pyridin-7-yl)isoindolin-1-one] in this work.
An IC50 of under 100 nM was found for `COC[C@H]1CN(c2ccc(Nc3cnc(-c4ccnc5c4ccn5C)c4c3C(=O)NC4)nc2)CC[C@@H]1O` [I-414] in this work.
An IC50 of 100 to 1000 nM was found for `Cc1[nH]c2ccccc2c1-c1ncc(Nc2ccc(N3CCN(C)CC3)cn2)c2c1CNC2=O` [I-11, 4-(2-methyl-1H-indol-3-yl)-7-[[5-(4-methylpiperazin-1-yl)-2-pyridyl]amino]-2,3-dihydropyrrolo [3,4-c]pyridin-1-one] in this work.
An IC50 of under 100 nM was found for `CN(CCO)Cc1nc(Nc2ccc(-c3cnc4cc(F)ccn34)c3c2C(=O)NC3)ccc1C1CCOC1` (stereo in doubt) [I-734, (R)-4-(7-fluoroimidazo [1,2-a]pyridin-3-yl)-7-((6-(((2-hydroxyethy (methyl)amino)methyl)-5-(tetrahydrofuran-3-yl)pyridin-2-yl)amino)isoin-dolin-1-one] in this work.
An IC50 of 100 to 1000 nM was found for `O=C1NCc2c(-c3cnc4cnccn34)ccc(Nc3ccc(S(=O)(=O)N4CCC4)cn3)c21` [I-307, 7-((5-(azetidin-1-ylsulfonyl)-pyridin-2-yl)amino)-4-(imidazo[1,2-a]pyrazin-3-yl)isoindolin-1-one] in this work.
An IC50 of under 100 nM was found for `Cn1ccc2c(-c3ccc(Nc4ccc(C5CCNCC5)cn4)c4c3CNC4=O)ccnc21` [I-96, 4-(1-methylpyrrolo [2,3-b]pyridin-4-yl)-7-[[5-(4-piperidyl)-2-pyridyl]amino] isoindolin-1-one] in this work.
An IC50 of 100 to 1000 nM was found for `Cc1ccc2c(-c3ncc(Nc4ccc(N5CCN(C)CC5)cn4)c4c3CNC4=O)c[nH]c2c1` [I-8, 4-(6-methyl-1H-indol-3-yl)-7-[[5-(4-methylpiperazin-1-yl)-2-pyridyl]amino]-2,3-dihydropyrrolo [3,4-c]pyridin-1-one] in this work.
An IC50 of 100 to 1000 nM was found for `Cn1ccc2c(-c3ncc(Nc4cccc(N5CC6(CCN6)C5)n4)c4c3CNC4=O)ccnc21` [I-680, 7-((6-(l,6-diazaspiro[3,3]heptan-6-yl)pyridin-2-yl)amino)-4-(1-methyl-1H-pyrrolo[2,3-b]pyridin-4-yl)-2,3-dihydro-1H-pyrrolo[3,4-c]pyridin-1-one] in this work.
An IC50 of under 100 nM was found for `Cn1ccc2c(-c3ncc(Nc4cccc(N5C[C@@H](N)CC5=O)n4)c4c3CNC4=O)ccnc21` [I-692, (S)-7-((6-(4-amino-2-oxopyrrolidin-1-yl)pyridin-2-yl)amino)-4-(1-methyl-1H-pyrrolo[2,3-b]pyridin-4-yl)-2,3-dihydro-1H-pyrrolo[3,4-c]pyridin-1-one] in this work.
An IC50 of under 100 nM was found for `Cn1ccc2c(-c3ccc(Nc4ccc(N5CCC(O)CC5)cn4)c4c3CNC4=O)cnc-2c1` [I-362, 7-((5-(4-hydroxy-piperidin-1-yl)pyridin-2-yl)amino)-4-(6-methyl-6H-pyrrolo[2,3-c]pyridin-3-yl)isoindolin-1-one] in this work.
An IC50 of under 100 nM was found for `CN1CCN(c2ccc(Nc3ccc(-c4ccnc5[nH]ccc45)c4c3C(=O)NC4)nc2)CC1` [I-31, 7-[[5-(4-methylpiperazin-1-yl)-2-pyridyl]amino]-4-(1H-pyrrolo[2,3-b]pyridin-4-yl)-isoindolin-1-one] in this work.
An IC50 of under 100 nM was found for `CC(C)(O)[C@H]1CCCN(c2ccc(Nc3ccc(-c4cnc5cnccn45)c4c3C(=O)NC4)nc2)C1` [I-310, (S)-7-((5-(3-(2-hydroxypropan-2-yl)piperidin-1-yl)pyridin-2-yl)amino)-4-(imidazo[1,2-a]pyrazin-3-yl)isoindolin-1-one] in this work.
An IC50 of under 100 nM was found for `CN1C[C@H](c2ccc(Nc3ccc(-c4cnc5cnccn45)c4c3C(=O)NC4)nc2)CCC1=O` [I-326, (S)-4-(imidazo[1,2-a]pyrazin-3-yl)-7-((5-(1-methyl-6-oxopiperidin-3-yl)pyridin-2-yl)amino)isoin-dolin-1-one] in this work.
An IC50 of under 100 nM was found for `CNC1CCN(c2ccc(Nc3ccc(-c4cnc5cc(C)ccn45)c4c3C(=O)NC4)nc2)CC1` [I-71, 7-[[5-[4-(methylamino)-1-piperidyl]-2-pyridyl]amino]-4-(7-methylimidazo [1,2-a]pyridin-3-yl)isoindolin-1-one] in this work.
An IC50 of under 100 nM was found for `O=C1NCc2c(-c3cnc4cc(F)ccn34)ccc(Nc3ccc([C@H]4CCOC4)c(CN4CCCC4)n3)c21` [I-515, (R)-4-(7-fluoroimidazo [1,2-a]pyridin-3-yl)-7-((6-(pyrrolidin-1-ylmethyl)-5-(tetrahydrofuran-3-yl)pyridin-2-yl)amino)isoin-dolin-1-one] in this work.
An IC50 of over 1000 nM was found for `Cc1ccc2c(-c3ncc(Nc4ccc(N5CCN(C)CC5)cn4)c4c3CNC4=O)c(C)[nH]c2n1` [I-17, 4-(2,6-dimethyl-1H-pyrrolo[2,3-b]pyridin-3-yl)-7-[[5-(4-methylpiperazin-1-yl)-2-pyridyl]amino]-2,3-dihydropyrrolo [3,4-c]pyridin-1-one] in this work.
An IC50 of under 100 nM was found for `O=C1NCc2c(-c3cnc4cc(F)ccn34)ccc(Nc3ccc([C@@H]4CCOC4)c(CN4CCC[C@H]4CO)n3)c21` [I-828, 4-(7-fluoroimidazo [1,2-a]pyridin-3-yl)-7-((6-(((S)-2-(hydroxymeth-yl)pyrrolidin-1-yl)methyl)-5-((S)-THF-3-yl)pyridin-2-yl)amino)isoin-dolin-1-one] in this work.
An IC50 of over 1000 nM was found for `O=C1NCc2c(-c3ccnc4ccnn34)ccc(Nc3ccc(N4CCNCC4)cn3)c21` [I-127, 7-[(5-piperazin-1-yl-2-pyridyl)amino]-4-pyrazolo[1,5-a]pyrimidin-7-yl-isoindolin-1-one] in this work.
An IC50 of under 100 nM was found for `C[C@H]1COCCN1c1ccc(Nc2ccc(-c3cnc4cc(F)ccn34)c3c2C(=O)NC3)nc1CN(C)C` [I-531, 7-[[6-[(dimethylamino)-methyl]-5-[(3S)-3-methylmorpho-lin-4-yl]-2-pyridyl]amino] 4-(7-fluoroimidazo [1,2-a]pyridin-3-yl)isoindolin-1-one] in this work.
An IC50 of under 100 nM was found for `O=C1NCc2c(-c3cnc4cc(F)ccn34)ccc(Nc3ccc([C@@H]4CCOC4)c(CNCC(F)F)n3)c21` (single isomer, unassigned) [I-740] in this work.
An IC50 of over 1000 nM was found for `Cc1ccc(Nc2cnc(-c3ccnc4c3ccn4C)c3c2C(=O)NC3)nc1N(C)C1CNC1` [I-667, 7-((6-(azetidin-3-yl-(methyl)amino)-5-methylpyridin-2-yl)amino)-4-(1-methyl-1H-pyrrolo[2.3-b]pyridin-4-yl)-2,3-dihydro-1H-pyrrolo[3,4-c]pyridin-1-one] in this work.
An IC50 of under 100 nM was found for `C[C@H](O)[C@H]1CN(c2ccc(Nc3ccc(-c4cnc5cc(F)ccn45)c4c3C(=O)NC4)nc2)CCO1` [I-634, 4-(7-fluoroimidazo[1,2-a]pyridin-3-yl)-7-((5-((R)-2-((S)-1-hydroxyethyl)morpholino)pyridin-2-yl)amino)isoindolin-1-one] in this work.
An IC50 of under 100 nM was found for `CN1CCN(c2ccc(Nc3cnc(-c4cccc5c4ccn5C)c4c3C(=O)NC4)nc2)CC1` [I-251, 4-(1-methyl-1H-indol-4-yl)-7-((5-(4-methylpiperazin-1-yl)pyridin-2-yl)amino)-2,3-dihydro-1H-pyrrolo[3,4-c]pyridin-1-one] in this work.
An IC50 of under 100 nM was found for `O=C1NCc2c(-c3cnc4cc(F)ccn34)ccc(Nc3ccc([C@@H]4CCOC4)cn3)c21` [I-222, (S)-4-(7-fluoroimidazo [1,2-a]pyridin-3-yl)-7-((5-(tetrahydro-furan-3-yl)pyridin-2-yl)amino)isoin-dolin-1-one] in this work.
